Data on 26 molecules can be found in US11208400B2, “Substituted 6-(1H-pyrazol-1-yl)pyrimidin-4-amine derivatives and uses thereof” (Bayer Aktiengesellschaft, priority 2016, dated 2021).

This assay addresses T1, human Npt2a (Homo sapiens, UniProt Q06495).
T1 construct: expressed in transfected cells
T1 sequence (Q06495 1-639): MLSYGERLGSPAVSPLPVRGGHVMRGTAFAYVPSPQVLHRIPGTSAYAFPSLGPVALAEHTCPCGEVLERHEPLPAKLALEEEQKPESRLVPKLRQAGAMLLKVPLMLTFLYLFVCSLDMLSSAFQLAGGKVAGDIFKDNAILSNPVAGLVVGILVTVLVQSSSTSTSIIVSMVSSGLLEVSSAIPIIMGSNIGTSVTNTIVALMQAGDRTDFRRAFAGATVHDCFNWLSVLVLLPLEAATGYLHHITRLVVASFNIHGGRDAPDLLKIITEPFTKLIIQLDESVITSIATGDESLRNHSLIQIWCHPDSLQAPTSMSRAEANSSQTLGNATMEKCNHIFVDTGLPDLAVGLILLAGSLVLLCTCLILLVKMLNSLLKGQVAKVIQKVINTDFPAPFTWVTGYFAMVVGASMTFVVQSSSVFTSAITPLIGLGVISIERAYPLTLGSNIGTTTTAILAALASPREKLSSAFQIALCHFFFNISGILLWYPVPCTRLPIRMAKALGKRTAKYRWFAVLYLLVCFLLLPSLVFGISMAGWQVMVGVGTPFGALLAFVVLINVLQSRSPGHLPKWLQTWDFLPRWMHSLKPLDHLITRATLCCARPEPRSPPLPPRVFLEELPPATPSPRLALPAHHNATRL
In words: Npt2a activity cell based assay, membrane potential dye, CHO T-REx hNpt2a cells. The following applies: doxycycline-induced, depolarization by sodium phosphate influx, average or median values if tested more than once. The gist of the method: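 Doxycycline-induced (0.5 μg/mL, 24 h) CHO T-REx cells were loaded with membrane potential dye in sodium-free NHE buffer (pH 7.4) and exposed to compound (50 μM–1 nM, 5 min, room temperature).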
In the case of `COc1c(Nc2cc(-n3nc(C)c4ccncc43)ncn2)n[nH]c1-c1ccc(C#N)cc1` [Example 214, 4-(4-methoxy-3-{[6-(3-methyl-1H-pyrazolo[3,4-c]pyridin-1-yl)pyrimidin-4-yl]amino}-1H-pyrazol-5-yl)benzonitrile], half-maximal inhibition (IC50) required 86 nM.
For `CCc1c(Nc2cc(-n3nc(C)c(C4(O)CCC4)c3C)ncn2)nn(C)c1-c1ccc(F)cc1` [Example 215, 1-[1-(6-{[4-ethyl-5-(4-fluorophenyl)-1-methyl-1H-pyrazol-3-yl]amino}pyrimidin-4-yl)-3,5-dimethyl-1H-pyrazol-4-yl]cyclobutanol], the IC50 (usually the point on the concentration scale where inhibition reaches its midpoint) worked out at 250 nM.
The molecule `CCc1c(-c2ccc(C#N)cc2)nn(C)c1Nc1cc(-n2nc(C)cc2C(F)F)ncn1` [Example 216, 4-[5-({6-[5-(difluoromethyl)-3-methyl-1H-pyrazol-1-yl]pyrimidin-4-yl}amino)-4-ethyl-1-methyl-1H-pyrazol-3-yl]benzonitrile] returned an IC50 of 12 nM.
As for `CCc1c(Nc2cc(-n3nc(C)cc3C(F)F)ncn2)nn(C)c1-c1ccc(C#N)cc1` [Example 217, 4-[3-({6-[5-(difluoromethyl)-3-methyl-1H-pyrazol-1-yl]pyrimidin-4-yl}amino)-4-ethyl-1-methyl-1H-pyrazol-5-yl]benzonitrile], it took 2 nM to reach half-maximal inhibition (IC50).
Under `Cc1nn(-c2cc(Nc3c(Cl)c(-c4ccc(F)cc4)nn3CC3CC3)ncn2)c2cnccc12` [Example 218, N-[4-chloro-1-(cyclopropylmethyl)-3-(4-fluorophenyl)-1H-pyrazol-5-yl]-6-(3-methyl-1H-pyrazolo[3,4-c]pyridin-1-yl)pyrimidin-4-amine] stands 32 nM.
For the molecule `CCOC(=O)c1c(C)nn(-c2cc(Nc3c(C)nn(-c4ccc(C#N)cc4)c3C)ncn2)c1C` [Example 219, ethyl 1-(6-{[1-(4-cyanophenyl)-3,5-dimethyl-1H-pyrazol-4-yl]amino}pyrimidin-4-yl)-3,5-dimethyl-1H-pyrazole-4-carboxylate], the IC50 was < 1.6 nM.
Molecule `CCc1c(Nc2cc(-n3nc(C)c(C4(O)COC4)c3C)ncn2)nn(C)c1-c1ccc(F)cc1` [Example 220, 3-[1-(6-{[4-ethyl-5-(4-fluorophenyl)-1-methyl-1H-pyrazol-3-yl]amino}pyrimidin-4-yl)-3,5-dimethyl-1H-pyrazol-4-yl]oxetan-3-ol] displayed an IC50 of 320 nM.
The same measure for `Cc1nn(-c2cc(Nc3c(C)c(-c4ccc(C#N)cc4)nn3CCC3CC3)ncn2)c(C)c1Cl` [Example 221, 4-[5-{[6-(4-chloro-3,5-dimethyl-1H-pyrazol-1-yl)pyrimidin-4-yl]amino}-1-(2-cyclopropylethyl)-4-methyl-1H-pyrazol-3-yl]benzonitrile]: 6 nM; for `Cc1nn(-c2cc(Nc3nn(CCC4CC4)c(-c4ccc(C#N)cc4)c3C)ncn2)c(C)c1Cl` [Example 222, 4-[3-{[6-(4-chloro-3,5-dimethyl-1H-pyrazol-1-yl)pyrimidin-4-yl]amino}-1-(2-cyclopropylethyl)-4-methyl-1H-pyrazol-5-yl]benzonitrile]: 44 nM; for `CCc1c(Nc2cc(-n3nc(C)c4ncccc43)ncn2)nn(C)c1-c1ccc(F)cc1` [Example 223, N-[4-ethyl-5-(4-fluorophenyl)-1-methyl-1H-pyrazol-3-yl]-6-(3-methyl-1H-pyrazolo[4,3-b]pyridin-1-yl)pyrimidin-4-amine]: 36 nM.
Take `CCc1c(Nc2cc(-n3nc(C)c4cnccc43)ncn2)nn(C)c1-c1ccc(F)cc1` [Example 224, N-[4-ethyl-5-(4-fluorophenyl)-1-methyl-1H-pyrazol-3-yl]-6-(3-methyl-1H-pyrazolo[4,3-c]pyridin-1-yl)pyrimidin-4-amine]: the IC50 is 47 nM.
Turning to `CCc1c(-c2ccc(F)cc2)nn(CC2CC2)c1Nc1cc(-n2nc(C)c(-c3nnc(C)o3)c2C)ncn1` [Example 225, N-[1-(cyclopropylmethyl)-4-ethyl-3-(4-fluorophenyl)-1H-pyrazol-5-yl]-6-[3,5-dimethyl-4-(5-methyl-1,3,4-oxadiazol-2-yl)-1H-pyrazol-1-yl]pyrimidin-4-amine], the IC50 stood at 8 nM.
Turning to `CCc1c(-c2ccc(F)cc2)nn(C)c1Nc1cc(-n2nc(C)c(-c3nnc(C)o3)c2C)ncn1` [Example 226, 6-[3,5-dimethyl-4-(5-methyl-1,3,4-oxadiazol-2-yl)-1H-pyrazol-1-yl]-N-[4-ethyl-3-(4-fluorophenyl)-1-methyl-1H-pyrazol-5-yl]pyrimidin-4-amine], the IC50 amounted to 190 nM.
Under `Cc1c(Nc2cc(-n3nc(C)c4ccncc43)ncn2)nn(C)c1-c1ccc(C#N)cc1` [Example 228, 4-(1,4-dimethyl-3-{[6-(3-methyl-1H-pyrazolo[3,4-c]pyridin-1-yl)pyrimidin-4-yl]amino}-1H-pyrazol-5-yl)benzonitrile] stands 210 nM.
The same measure for `CCc1c(-c2ccc(F)cc2)nn(C)c1Nc1cc(-n2nc(C)c3ncccc32)ncn1` [Example 229, N-[4-ethyl-3-(4-fluorophenyl)-1-methyl-1H-pyrazol-5-yl]-6-(3-methyl-1H-pyrazolo[4,3-b]pyridin-1-yl)pyrimidin-4-amine]: 350 nM.
The same measure for `CCc1c(-c2ccc(F)cc2)nn(C)c1Nc1cc(-n2nc(C)c3cnccc32)ncn1` [Example 230, N-[4-ethyl-3-(4-fluorophenyl)-1-methyl-1H-pyrazol-5-yl]-6-(3-methyl-1H-pyrazolo[4,3-c]pyridin-1-yl)pyrimidin-4-amine]: 830 nM.
The molecule `Cc1c(-c2ccc(C#N)cc2)nn(CC2CC2)c1Nc1cc(-n2nc(C)c3ccncc32)ncn1` [Example 231, 4-[1-(cyclopropylmethyl)-4-methyl-5-{[6-(3-methyl-1H-pyrazolo[3,4-c]pyridin-1-yl)pyrimidin-4-yl]amino}-1H-pyrazol-3-yl]benzonitrile] showed an IC50 of 2 nM.
Under `Cc1c(-c2ccc(C#N)cc2)nn(CC2CC2)c1Nc1cc(-n2nc(C)c3ncccc32)ncn1` [Example 232, 4-[1-(cyclopropylmethyl)-4-methyl-5-{[6-(3-methyl-1H-pyrazolo[4,3-b]pyridin-1-yl)pyrimidin-4-yl]amino}-1H-pyrazol-3-yl]benzonitrile] stands 6 nM.
`Cc1c(-c2ccc(C#N)cc2)nn(CC2CC2)c1Nc1cc(-n2nc(C)c3cnccc32)ncn1` [Example 233, 4-[1-(cyclopropylmethyl)-4-methyl-5-{[6-(3-methyl-1H-pyrazolo[4,3-c]pyridin-1-yl)pyrimidin-4-yl]amino}-1H-pyrazol-3-yl]benzonitrile] gave an IC50 of 29 nM.
Under `Cc1cc(C(F)F)n(-c2cc(Nc3c(C)c(-c4ccc(C#N)cc4)nn3CC(F)F)ncn2)n1` [Example 234, 4-[1-(2,2-difluoroethyl)-5-({6-[5-(difluoromethyl)-3-methyl-1H-pyrazol-1-yl]pyrimidin-4-yl}amino)-4-methyl-1H-pyrazol-3-yl]benzonitrile] stands 28 nM.
`Cc1nn(-c2cc(Nc3nn(C)c(-c4ccc(C#N)cc4)c3C)ncn2)c(C(F)F)c1Cl` [Example 235, 4-[3-({6-[4-chloro-5-(difluoromethyl)-3-methyl-1H-pyrazol-1-yl]pyrimidin-4-yl}amino)-1,4-dimethyl-1H-pyrazol-5-yl]benzonitrile] displayed an IC50 of 3 nM.
The same measure for `Cc1cc(C(F)F)n(-c2cc(Nc3nn(C)c(-c4ccc(C#N)cc4)c3C)ncn2)n1` [Example 236, 4-[3-({6-[5-(difluoromethyl)-3-methyl-1H-pyrazol-1-yl]pyrimidin-4-yl}amino)-1,4-dimethyl-1H-pyrazol-5-yl]benzonitrile]: 3 nM; for `Cc1nn(-c2cc(Nc3c(C)c(-c4ccc(C#N)cc4)nn3CCC3CC3)ncn2)c(C(F)F)c1Cl` [Example 237, 4-[5-({6-[4-chloro-5-(difluoromethyl)-3-methyl-1H-pyrazol-1-yl]pyrimidin-4-yl}amino)-1-(2-cyclopropylethyl)-4-methyl-1H-pyrazol-3-yl]benzonitrile]: 15 nM; for `CCc1c(Nc2cc(-n3nc(C)c(CC(C)(C)O)c3C)ncn2)nn(C)c1-c1ccc(F)cc1` [Example 238, 1-[1-(6-{[4-ethyl-5-(4-fluorophenyl)-1-methyl-1H-pyrazol-3-yl]amino}pyrimidin-4-yl)-3,5-dimethyl-1H-pyrazol-4-yl]-2-methylpropan-2-ol]: 83 nM.
The molecule `Cc1nn(-c2cc(Nc3nn(CCC4CC4)c(-c4ccc(C#N)cc4)c3C)ncn2)c(C(F)F)c1Cl` [Example 239, 4-[3-({6-[4-chloro-5-(difluoromethyl)-3-methyl-1H-pyrazol-1-yl]pyrimidin-4-yl}amino)-1-(2-cyclopropylethyl)-4-methyl-1H-pyrazol-5-yl]benzonitrile] yielded an IC50 of 290 nM.
The molecule `Cc1cc(C(F)F)n(-c2cc(Nc3c(C)c(-c4ccc(C#N)cc4)nn3C)ncn2)n1` [Example 240, 4-[5-({6-[5-(difluoromethyl)-3-methyl-1H-pyrazol-1-yl]pyrimidin-4-yl}amino)-1,4-dimethyl-1H-pyrazol-3-yl]benzonitrile] registered an IC50 of 18 nM.
